Measurements as given in patent US8268363B2, “Pharmaceutical combination preparation containing glycyrrhizine, zinc, and a compound comprising a thiol group or a group that is metabolized thereto” (priority 2003, dated 2012).

Tested on: flu symptoms (colds, flu, viral infection of the upper respiratory tract)
Assay: clinical studies in flu symptoms: single substances and the combination
Type: in vivo, human
Details: single treatment; for effect on a scale of 1-10 (1 least effect, 10 maximum effect): daily dose divided in three doses; for average duration of the illness: daily dose divided in three doses (zinc 125 mg, N-acetylcysteine 2400 mg, glycyrrhicinic acid 1500 mg), without treatment normally 7 days
Method: In clinical studies each single substance was tested in flu symptoms (colds, flu, viral infection of the upper respiratory tract) whose duration without treatment normal lasted 7 days.
a) Zinc as a single treatment: • 125mg per day, divided in three doses:
b) N-Acetylcysteine • 2400 mg, divided in three doses;
c) Glycyrrhicinic acid • 1500 mg, divided in three doses;
The average duration of illness with the treatment combination of all three of the above substances a), b), and c) in the majority of the cases the duration of the illness was shortened to 24 hours or less. […] 24 hours later, 85% of the patients were completely without symptoms and able to return to work. The maximum duration in a few cases lasted 5 days.
Further, 20 children between the ages of 7 to 15 years old were treated with half of the doses from the combination of a) b) and c). The results were the same as for the adults.

| Molecule | effect on a scale of 1-10 (1 least effect, 10 maximum effect) | average duration of the illness |
| --- | --- | --- |
| Zinc | 2 | 5 days |
| CC(=O)N[C@@H](CS)C(=O)O [N-Acetylcysteine] | 5 | 4 days |
| Glycyrrhicinic acid | 2 | 5.0 days |
